Experimental data reported in PMC4042160, “In silico, in vitro and cellular analysis with a kinome-wide inhibitor panel correlates cellular LRRK2 dephosphorylation to inhibitor activity on LRRK2” (Frontiers in Molecular Neuroscience, 2014).
Like-named read-outs stand apart in the source and are kept apart here.

Key:
[1] = test system: LRRK2; settings: 2011, read-out: IC50 in vitro LRRK2, published, cited from earlier work
[2] = test system: LRRK2 pS935; parameters: method as in Hermanson et al., 2012; settings: ref Hermanson et al., 2012; read-out: IC50 pS935 levels, time-resolved FRET; cited from earlier work
[3] = target: T1, full length LRRK2 protein (Homo sapiens, UniProt Q5S007); test: In vitro LRRKtide kinase assay with full length recombinant LRRK2, dose-response (IC50/pIC50); type: biochemical
T1 construct: compounds were tested in triplicate with full length LRRK2 protein; made in house
T1 sequence (Q5S007 whole entry): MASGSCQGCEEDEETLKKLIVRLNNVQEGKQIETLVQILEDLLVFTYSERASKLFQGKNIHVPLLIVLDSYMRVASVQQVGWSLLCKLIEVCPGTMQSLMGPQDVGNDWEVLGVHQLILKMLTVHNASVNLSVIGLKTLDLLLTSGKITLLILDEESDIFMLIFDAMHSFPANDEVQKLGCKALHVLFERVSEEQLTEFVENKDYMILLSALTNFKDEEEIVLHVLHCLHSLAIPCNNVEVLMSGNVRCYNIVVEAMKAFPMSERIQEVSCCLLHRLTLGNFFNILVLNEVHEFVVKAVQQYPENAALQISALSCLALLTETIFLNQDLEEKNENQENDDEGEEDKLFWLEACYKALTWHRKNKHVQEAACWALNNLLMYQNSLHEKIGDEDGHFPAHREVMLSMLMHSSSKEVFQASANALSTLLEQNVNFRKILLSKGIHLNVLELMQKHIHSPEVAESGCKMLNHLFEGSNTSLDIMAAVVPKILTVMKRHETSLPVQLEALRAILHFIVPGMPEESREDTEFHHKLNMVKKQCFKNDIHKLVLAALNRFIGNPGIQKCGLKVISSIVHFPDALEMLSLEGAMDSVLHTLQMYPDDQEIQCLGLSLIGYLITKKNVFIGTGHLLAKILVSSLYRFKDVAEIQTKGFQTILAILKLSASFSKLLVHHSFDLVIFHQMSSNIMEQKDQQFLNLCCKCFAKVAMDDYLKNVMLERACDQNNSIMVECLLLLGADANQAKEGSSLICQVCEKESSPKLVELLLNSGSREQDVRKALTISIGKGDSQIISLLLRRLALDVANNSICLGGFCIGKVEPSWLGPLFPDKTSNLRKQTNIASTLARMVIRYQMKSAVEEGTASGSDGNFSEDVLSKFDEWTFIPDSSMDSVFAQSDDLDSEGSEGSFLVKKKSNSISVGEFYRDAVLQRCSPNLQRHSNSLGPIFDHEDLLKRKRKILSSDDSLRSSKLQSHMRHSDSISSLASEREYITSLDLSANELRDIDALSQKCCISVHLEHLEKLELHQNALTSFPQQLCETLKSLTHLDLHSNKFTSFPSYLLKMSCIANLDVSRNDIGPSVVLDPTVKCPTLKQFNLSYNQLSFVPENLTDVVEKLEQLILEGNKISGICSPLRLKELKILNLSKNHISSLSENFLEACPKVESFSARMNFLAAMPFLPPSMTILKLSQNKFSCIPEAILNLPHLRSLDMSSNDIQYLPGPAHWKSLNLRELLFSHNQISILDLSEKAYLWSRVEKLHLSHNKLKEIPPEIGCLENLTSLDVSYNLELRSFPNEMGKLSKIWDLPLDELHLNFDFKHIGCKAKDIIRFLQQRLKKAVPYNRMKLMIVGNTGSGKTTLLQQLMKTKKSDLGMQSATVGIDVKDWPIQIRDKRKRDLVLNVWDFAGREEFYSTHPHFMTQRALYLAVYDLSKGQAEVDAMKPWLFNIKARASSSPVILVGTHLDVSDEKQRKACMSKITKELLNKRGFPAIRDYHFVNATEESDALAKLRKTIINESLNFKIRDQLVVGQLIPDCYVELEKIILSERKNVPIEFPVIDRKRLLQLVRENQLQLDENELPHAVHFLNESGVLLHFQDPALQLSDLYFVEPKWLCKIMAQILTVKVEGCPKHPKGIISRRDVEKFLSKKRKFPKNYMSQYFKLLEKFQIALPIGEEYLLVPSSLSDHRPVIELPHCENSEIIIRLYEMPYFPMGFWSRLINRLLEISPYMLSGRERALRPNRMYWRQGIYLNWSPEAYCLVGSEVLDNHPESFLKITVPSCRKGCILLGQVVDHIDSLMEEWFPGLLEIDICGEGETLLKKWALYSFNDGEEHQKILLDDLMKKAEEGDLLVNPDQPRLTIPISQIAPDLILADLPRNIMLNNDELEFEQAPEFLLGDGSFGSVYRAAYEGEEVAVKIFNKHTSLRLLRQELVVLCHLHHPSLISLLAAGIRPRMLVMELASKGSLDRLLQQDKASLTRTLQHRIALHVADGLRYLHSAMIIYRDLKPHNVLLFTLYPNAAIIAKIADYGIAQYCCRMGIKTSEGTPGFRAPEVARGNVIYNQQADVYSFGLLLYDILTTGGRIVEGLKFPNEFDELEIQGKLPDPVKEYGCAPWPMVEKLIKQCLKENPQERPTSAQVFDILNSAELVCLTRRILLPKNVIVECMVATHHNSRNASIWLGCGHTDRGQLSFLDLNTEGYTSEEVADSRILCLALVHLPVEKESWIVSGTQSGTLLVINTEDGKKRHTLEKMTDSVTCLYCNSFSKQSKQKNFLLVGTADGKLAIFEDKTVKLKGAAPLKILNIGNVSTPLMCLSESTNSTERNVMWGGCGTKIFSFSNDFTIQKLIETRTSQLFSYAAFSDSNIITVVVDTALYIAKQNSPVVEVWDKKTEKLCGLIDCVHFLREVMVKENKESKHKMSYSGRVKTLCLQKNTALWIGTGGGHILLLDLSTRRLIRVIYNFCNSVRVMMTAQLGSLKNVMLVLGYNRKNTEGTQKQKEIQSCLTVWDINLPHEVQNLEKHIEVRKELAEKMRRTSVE

[4] = target: T2, LRRK2 phospho-Ser935 (Homo sapiens, UniProt Q5S007); test: Cellular LRRK2 phosphoserine 935 dephosphorylation spotblot assay in SH-SY5Y cells stably expressing 3xFlag-LRRK2; type: cell-based; settings: for Phosphorylation level relative to solvent (%) (cellular pS935 assay): @ 5 μM for 2 h, SH-SY5Y stably expressing LRRK2, pS935/total LRRK2; for Cellular pS935 (% @ 5 μM): pS935 level as % of control, 5 μM for 2 h
T2 construct: expressed in transfected cells
T2 sequence (Q5S007 whole entry): as above

[5] = test system: LRRK2 pS935; parameters: method as in Delbroek et al., 2013; settings: ref Delbroek et al., 2013; read-out: IC50 pS935 levels, ELISA; cited from earlier work
[6] = test system: LRRK2 pS935; parameters: method as in Dzamko et al., 2010; Deng et al., 2011; settings: ref Dzamko et al., 2010; Deng et al., 2011; read-out: IC50 pS935 levels, western blot; cited from earlier work
[7] = target: T3, GST-tagged truncated LRRK2 containing residues 970 to 2527 (Homo sapiens, UniProt Q5S007); test: In vitro LRRKtide peptide-substrate kinase assay, single dose testing (10 μM); type: biochemical; settings: LRRKtide assay @ 10 μM inhibitor; GST-LRRK2 970-2527; 10 μM ATP; mean, N = 3; solvent control = 100%
T3 construct: GST-tagged truncated LRRK2 containing residues 970 to 2527 (Life Technologies); purchased Life Technologies
T3 sequence (Q5S007 970-2527): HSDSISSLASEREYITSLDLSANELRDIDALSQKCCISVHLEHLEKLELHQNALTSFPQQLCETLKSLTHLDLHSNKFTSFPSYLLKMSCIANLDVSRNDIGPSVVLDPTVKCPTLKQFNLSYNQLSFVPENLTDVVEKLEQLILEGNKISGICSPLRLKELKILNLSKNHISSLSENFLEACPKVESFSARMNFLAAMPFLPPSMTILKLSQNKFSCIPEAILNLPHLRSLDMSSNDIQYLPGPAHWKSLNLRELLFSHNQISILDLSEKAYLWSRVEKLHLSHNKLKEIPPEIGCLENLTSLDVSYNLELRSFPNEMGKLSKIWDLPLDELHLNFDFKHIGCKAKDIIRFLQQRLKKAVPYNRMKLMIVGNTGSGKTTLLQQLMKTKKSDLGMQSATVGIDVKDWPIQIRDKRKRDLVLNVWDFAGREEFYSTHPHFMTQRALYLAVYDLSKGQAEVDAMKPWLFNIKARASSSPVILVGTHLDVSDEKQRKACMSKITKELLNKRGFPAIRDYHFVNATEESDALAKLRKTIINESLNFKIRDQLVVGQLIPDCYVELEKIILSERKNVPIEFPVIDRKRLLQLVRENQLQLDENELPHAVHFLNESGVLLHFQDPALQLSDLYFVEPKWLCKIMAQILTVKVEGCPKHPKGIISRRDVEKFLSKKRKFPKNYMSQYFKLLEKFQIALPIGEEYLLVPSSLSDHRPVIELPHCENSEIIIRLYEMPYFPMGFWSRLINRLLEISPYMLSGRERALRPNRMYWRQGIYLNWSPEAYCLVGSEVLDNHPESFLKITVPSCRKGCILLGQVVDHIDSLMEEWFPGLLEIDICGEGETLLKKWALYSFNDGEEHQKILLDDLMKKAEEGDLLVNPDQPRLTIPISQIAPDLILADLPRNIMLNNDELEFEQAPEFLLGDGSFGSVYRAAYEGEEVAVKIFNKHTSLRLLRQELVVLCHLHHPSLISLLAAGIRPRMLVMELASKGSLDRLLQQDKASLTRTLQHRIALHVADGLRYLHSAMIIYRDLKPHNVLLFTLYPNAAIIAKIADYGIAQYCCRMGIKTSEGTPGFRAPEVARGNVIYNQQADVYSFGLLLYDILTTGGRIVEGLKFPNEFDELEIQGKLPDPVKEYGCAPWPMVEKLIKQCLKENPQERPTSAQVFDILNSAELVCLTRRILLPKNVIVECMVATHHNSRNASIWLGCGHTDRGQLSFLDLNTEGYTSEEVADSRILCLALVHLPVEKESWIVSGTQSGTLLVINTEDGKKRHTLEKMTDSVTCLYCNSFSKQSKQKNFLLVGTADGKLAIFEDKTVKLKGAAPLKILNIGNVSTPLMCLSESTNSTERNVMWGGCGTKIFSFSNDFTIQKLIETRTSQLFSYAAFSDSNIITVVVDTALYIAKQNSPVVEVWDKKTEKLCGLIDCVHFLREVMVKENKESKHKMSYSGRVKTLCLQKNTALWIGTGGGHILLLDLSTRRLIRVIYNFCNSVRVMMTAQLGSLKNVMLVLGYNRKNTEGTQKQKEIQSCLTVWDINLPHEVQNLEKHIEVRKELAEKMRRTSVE

[8] = LRRKtide phosphorylation, dose-response
[9] = LRRKtide phosphorylation, dose-response, read-out: IC50 in vitro (lrrktide)
[10] = SH-SY5Y cells with stable expression of LRRK2
[11] = pS935 dephosphorylation, SH-SY5Y cells with stable expression of LRRK2
[12] = pS935 dephosphorylation, SH-SY5Y cells with stable expression of LRRK2, read-out: IC50 cellular (pS935)

## COc1cc(C(=O)N2CCC(N3CCN(C)CC3)CC2)ccc1Nc1ncc2c(n1)N(C)c1ccccc1C(=O)N2C [LRRK2-IN1]
[1]; 100 μM ATP in original study, ref Deng et al.
  IC50: 13 nM
[2]
  IC50: 90 to 200 nM
[3]; full length LRRK2, 10 μM ATP, read-out: IC50 (LRRKtide phosphorylation assay)
  IC50: 3.54 nM
[4]; SH-SY5Y stably overexpressing 3flag-LRRK2 WT, N ≥ 5, read-out: IC50 of phosphorylation at LRRK2 Ser935 (cellular spotblot)
  IC50: 239 nM
[5]
  IC50: 50 to 100 nM
[6]
  IC50: ~100 nM

## CCOC(=O)c1c(C)[nH]c(/C=C2\C(=O)Nc3ccccc32)c1C [VEGF receptor 2 kinase inhibitor I]
[3]; [8]
  pIC50 in vitro (lrrktide): 7.61
[3]; [9]
  IC50: 24.6 nM
[7]
  % LRRKtide phosphorylation relative to solvent: 26.67%
[4]
  Phosphorylation level relative to solvent (%) (cellular pS935 assay): 60.83%
[4]; [10]
  Cellular pS935 (% @ 5 μM): 60.83%

## CCC(=O)Nc1ccc2ncnc(Nc3cccc(Br)c3)c2c1 [PD 174265]
[3]; [8]
  pIC50 in vitro (lrrktide): 5.05
[3]; [9]
  IC50: 8870 nM
[7]
  % LRRKtide phosphorylation relative to solvent: 32.67%
[4]
  Phosphorylation level relative to solvent (%) (cellular pS935 assay): 67.74%
[4]; [10]
  Cellular pS935 (% @ 5 μM): 67.74%

## CN(C)c1ccc(/C=C2\C(=O)Nc3ccccc32)cc1 [DMBI]
[3]; [8]
  pIC50 in vitro (lrrktide): 5.83
[3]; [9]
  IC50: 1480 nM
[7]
  % LRRKtide phosphorylation relative to solvent: 19.33%
[4]
  Phosphorylation level relative to solvent (%) (cellular pS935 assay): 54.34%
[4]; [10]
  Cellular pS935 (% @ 5 μM): 54.34%

## COc1cc2ncnc(N3CCN(C(=O)Nc4ccc(Oc5ccccc5)cc4)CC3)c2cc1OC [PDGF receptor tyrosine kinase inhibitor III]
[3]; [8]
  pIC50 in vitro (lrrktide): <5
[3]; [9]
  IC50: > 10000 nM
[7]
  % LRRKtide phosphorylation relative to solvent: 55.86%
[4]
  Phosphorylation level relative to solvent (%) (cellular pS935 assay): 72.83%
[4]; [10]
  Cellular pS935 (% @ 5 μM): 72.83%

## CC(C)[C@H](CO)Nc1nc(Nc2cc(N)cc(Cl)c2)c2ncn(C(C)C)c2n1 [Aminopurvalanol A]
[3]; [9]
  IC50: 2030 nM
[7]
  % LRRKtide phosphorylation relative to solvent: 7.36%
[4]
  Phosphorylation level relative to solvent (%) (cellular pS935 assay): 121.05%
[4]; [10]
  Cellular pS935 (% @ 5 μM): 121.05%

## O=C1Nc2ccccc2/C1=C\c1c(Cl)[nH]c2ccccc12 [Cdk1 inhibitor]
[3]; [8]
  pIC50 in vitro (lrrktide): <5
[3]; [9]
  IC50: > 10000 nM
[7]
  % LRRKtide phosphorylation relative to solvent: 29.84%
[4]
  Phosphorylation level relative to solvent (%) (cellular pS935 assay): 78.35%
[4]; [10]
  Cellular pS935 (% @ 5 μM): 78.35%

## Nc1nc(Nc2ccc(S(N)(=O)=O)cc2)nn1C(=S)Nc1c(F)cccc1F [Cdk1/2 inhibitor III]
[3]; [8]
  pIC50 in vitro (lrrktide): 9.04
[3]; [9]
  IC50: 0.91 nM
[7]
  % LRRKtide phosphorylation relative to solvent: 0.73%
[4]
  Phosphorylation level relative to solvent (%) (cellular pS935 assay): 13.15%
[4]; [11]
  pIC50 cellular (pS935): 8.93
[4]; [12]
  IC50: 1.18 nM
[4]; [10]
  Cellular pS935 (% @ 5 μM): 13.15%

## COc1ccc(CNc2nc(N(CCO)CCO)nc3c2ncn3C(C)C)cc1 [Cdk2 inhibitor III]
[3]; [8]
  pIC50 in vitro (lrrktide): <5
[3]; [9]
  IC50: > 10000 nM
[7]
  % LRRKtide phosphorylation relative to solvent: 60.51%
[4]
  Phosphorylation level relative to solvent (%) (cellular pS935 assay): 100.49%
[4]; [10]
  Cellular pS935 (% @ 5 μM): 100.49%

## COc1cc2ncnc(Nc3ccc(NC(=O)c4ccccc4)cc3)c2cc1OC [Aurora kinase inhibitor II]
[3]; [8]
  pIC50 in vitro (lrrktide): <5
[3]; [9]
  IC50: > 10000 nM
[7]
  % LRRKtide phosphorylation relative to solvent: 22.60%
[4]
  Phosphorylation level relative to solvent (%) (cellular pS935 assay): 69.85%
[4]; [10]
  Cellular pS935 (% @ 5 μM): 69.85%

## CCN(CC)CCNC(=O)c1c(C)[nH]c(/C=C2\C(=O)Nc3ccc(Cl)cc32)c1C [SU11652]
[3]; [9]
  IC50: 10.9 nM
[7]
  % LRRKtide phosphorylation relative to solvent: 0.79%
[4]
  Phosphorylation level relative to solvent (%) (cellular pS935 assay): 14.19%
[4]; [12]
  IC50: 316 nM
[4]; [10]
  Cellular pS935 (% @ 5 μM): 14.19%

## COc1cc(N2CCOCC2)ccc1Nc1ncc(F)c(Nc2ccccc2NS(C)(=O)=O)n1 [CZC-25146]
[1]; ref Ramsden et al.
  IC50: 4.76 nM
[3]; read-out: IC50 (LRRKtide phosphorylation assay)
  IC50: 1.78 nM
[4]; read-out: IC50 of phosphorylation at LRRK2 Ser935 (cellular spotblot)
  IC50: 61 nM

## Cc1[nH]c(/C=C2\C(=O)Nc3ccc(S(=O)(=O)N(C)c4cccc(Cl)c4)cc32)c(C)c1C(=O)N1CCN(C)CC1 [Met kinase inhibitor]
[3]; [8]
  pIC50 in vitro (lrrktide): 7.37
[3]; [9]
  IC50: 43 nM
[7]
  % LRRKtide phosphorylation relative to solvent: 2.05%
[4]
  Phosphorylation level relative to solvent (%) (cellular pS935 assay): 52.43%
[4]; [10]
  Cellular pS935 (% @ 5 μM): 52.43%

## Nc1ccc2ncnc(NCCc3ccc(Oc4ccccc4)cc3)c2c1 [NF-KB activation inhibitor]
[3]; [8]
  pIC50 in vitro (lrrktide): <5
[3]; [9]
  IC50: > 10000 nM
[7]
  % LRRKtide phosphorylation relative to solvent: 57.28%
[4]
  Phosphorylation level relative to solvent (%) (cellular pS935 assay): 65.67%
[4]; [10]
  Cellular pS935 (% @ 5 μM): 65.67%

## Cc1cc(C)c(/C=C2\C(=O)Nc3ccccc32)[nH]1 [VEGF receptor 2 kinase inhibitor III]
[3]; [8]
  pIC50 in vitro (lrrktide): 6.56
[3]; [9]
  IC50: 273 nM
[7]
  % LRRKtide phosphorylation relative to solvent: 2.19%
[4]
  Phosphorylation level relative to solvent (%) (cellular pS935 assay): 45.08%
[4]; [11]
  pIC50 cellular (pS935): <5.7
[4]; [12]
  IC50: > 2000 nM
[4]; [10]
  Cellular pS935 (% @ 5 μM): 45.08%

## CC(C)[C@H](CO)Nc1nc(Nc2cccc(Cl)c2)c2ncn(C(C)C)c2n1 [Purvalanol A]
[3]; [9]
  IC50: 4570 nM
[7]
  % LRRKtide phosphorylation relative to solvent: 15.64%
[4]
  Phosphorylation level relative to solvent (%) (cellular pS935 assay): 121.26%
[4]; [10]
  Cellular pS935 (% @ 5 μM): 121.26%

## CC(=O)O/N=C1/C(=C2/C(=O)Nc3cc(Br)ccc32)Nc2ccccc21 [GSK-3 inhibitor X]
[3]; [8]
  pIC50 in vitro (lrrktide): <5
[3]; [9]
  IC50: > 10000 nM
[7]
  % LRRKtide phosphorylation relative to solvent: 38.94%
[4]
  Phosphorylation level relative to solvent (%) (cellular pS935 assay): 106.06%
[4]; [10]
  Cellular pS935 (% @ 5 μM): 106.06%

## CN(C)S(=O)(=O)c1ccc2c(c1)/C(=C/c1cc3c([nH]1)CCCC3)C(=O)N2 [SU6656]
[3]; [9]
  IC50: 10 nM
[7]
  % LRRKtide phosphorylation relative to solvent: 4.57%
[4]
  Phosphorylation level relative to solvent (%) (cellular pS935 assay): 14.34%
[4]; [12]
  IC50: 423 nM
[4]; [10]
  Cellular pS935 (% @ 5 μM): 14.34%

## COc1cc(OC)c(C=C2C(O)=Nc3ccccc32)c(OC)c1 [IC261]
[3]; [9]
  IC50: > 10000 nM
[7]
  % LRRKtide phosphorylation relative to solvent: 89.62%
[4]
  Phosphorylation level relative to solvent (%) (cellular pS935 assay): 78.81%
[4]; [10]
  Cellular pS935 (% @ 5 μM): 78.81%

## O=C1Nc2ccc(Br)cc2/C1=C/c1cc2c([nH]1)CCCC2 [VEGF receptor 2 kinase inhibitor II]
[3]; [8]
  pIC50 in vitro (lrrktide): 7.44
[3]; [9]
  IC50: 36.3 nM
[7]
  % LRRKtide phosphorylation relative to solvent: 4.13%
[4]
  Phosphorylation level relative to solvent (%) (cellular pS935 assay): 37.26%
[4]; [11]
  pIC50 cellular (pS935): <5.7
[4]; [12]
  IC50: > 2000 nM
[4]; [10]
  Cellular pS935 (% @ 5 μM): 37.26%
